Measurements taken from PubChem BioAssay (NCI).
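These data come from cells grown in 96-well plates and exposed to compound for 48 hours at five concentrations. TGI marks complete inhibition of growth.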

How the values were obtained:
Test in all cases: DTP human tumour cell line panel, 48 h
786-0 renal = tested on: 786-0 renal
A498 renal = tested on: A498 renal
A549 NSCLC = tested on: A549 NSCLC
ACHN renal = tested on: ACHN renal
BT-549 breast = tested on: BT-549 breast
CAKI-1 renal = tested on: CAKI-1 renal
CCRF-CEM leukemia = tested on: CCRF-CEM leukemia
COLO 205 colon = tested on: COLO 205 colon
DU-145 prostate = tested on: DU-145 prostate
HCC-2998 colon = tested on: HCC-2998 colon
HCT-116 colon = tested on: HCT-116 colon
HCT-15 colon = tested on: HCT-15 colon
HOP-62 NSCLC = tested on: HOP-62 NSCLC
HOP-92 NSCLC = tested on: HOP-92 NSCLC
HS 578T breast = tested on: HS 578T breast
HT29 colon = tested on: HT29 colon
IGROV1 ovarian = tested on: IGROV1 ovarian
K-562 leukemia = tested on: K-562 leukemia
KM12 colon = tested on: KM12 colon
LOX IMVI melanoma = tested on: LOX IMVI melanoma
M14 melanoma = tested on: M14 melanoma
MALME-3M melanoma = tested on: MALME-3M melanoma
MDA-MB-231 breast = tested on: MDA-MB-231 breast
MDA-MB-435 = tested on: MDA-MB-435
MDA-N = tested on: MDA-N
MOLT-4 leukemia = tested on: MOLT-4 leukemia
NCI-H226 lung = tested on: NCI-H226 lung
NCI-H23 lung = tested on: NCI-H23 lung
NCI-H460 lung = tested on: NCI-H460 lung
NCI-H522 lung = tested on: NCI-H522 lung
NCI/ADR-RES ovarian = tested on: NCI/ADR-RES ovarian
OVCAR-3 ovarian = tested on: OVCAR-3 ovarian
OVCAR-4 ovarian = tested on: OVCAR-4 ovarian
OVCAR-5 ovarian = tested on: OVCAR-5 ovarian
OVCAR-8 ovarian = tested on: OVCAR-8 ovarian
PC-3 prostate = tested on: PC-3 prostate
RPMI-8226 leukemia = tested on: RPMI-8226 leukemia
RXF 393 renal = tested on: RXF 393 renal
SF-268 CNS = tested on: SF-268 CNS
SF-295 CNS = tested on: SF-295 CNS
SK-MEL-2 melanoma = tested on: SK-MEL-2 melanoma
SK-MEL-28 melanoma = tested on: SK-MEL-28 melanoma
SK-MEL-5 melanoma = tested on: SK-MEL-5 melanoma
SK-OV-3 ovarian = tested on: SK-OV-3 ovarian
SN12C renal = tested on: SN12C renal
SNB-19 CNS = tested on: SNB-19 CNS
SNB-75 CNS = tested on: SNB-75 CNS
SW-620 colon = tested on: SW-620 colon
T-47D breast = tested on: T-47D breast
TK-10 renal = tested on: TK-10 renal
U251 CNS = tested on: U251 CNS
UACC-257 melanoma = tested on: UACC-257 melanoma
UACC-62 melanoma = tested on: UACC-62 melanoma
UO-31 renal = tested on: UO-31 renal
EKVX NSCLC = tested on: EKVX NSCLC
HL-60(TB) leukemia = tested on: HL-60(TB) leukemia
SF-539 CNS = tested on: SF-539 CNS

## CNc1nc(SC)nc2c1c(N)nn2C
786-0 renal
  TGI: > 100 µM
A498 renal
  TGI: > 100 µM
A549 NSCLC
  TGI: > 100 µM
ACHN renal
  TGI: > 100 µM
BT-549 breast
  TGI: > 100 µM
CAKI-1 renal
  TGI: > 100 µM
CCRF-CEM leukemia
  TGI: > 100 µM
COLO 205 colon
  TGI: > 100 µM
DU-145 prostate
  TGI: > 100 µM
HCC-2998 colon
  TGI: > 100 µM
HCT-116 colon
  TGI: > 100 µM
HCT-15 colon
  TGI: > 100 µM
HOP-62 NSCLC
  TGI: > 100 µM
HOP-92 NSCLC
  TGI: > 100 µM
HS 578T breast
  TGI: > 100 µM
HT29 colon
  TGI: > 100 µM
IGROV1 ovarian
  TGI: > 100 µM
K-562 leukemia
  TGI: > 100 µM
KM12 colon
  TGI: > 100 µM
LOX IMVI melanoma
  TGI: > 100 µM
M14 melanoma
  TGI: > 100 µM
MALME-3M melanoma
  TGI: > 100 µM
MDA-MB-231 breast
  TGI: > 100 µM
MDA-MB-435
  TGI: > 100 µM
MDA-N
  TGI: > 100 µM
MOLT-4 leukemia
  TGI: > 100 µM
NCI-H226 lung
  TGI: > 100 µM
NCI-H23 lung
  TGI: > 100 µM
NCI-H460 lung
  TGI: > 100 µM
NCI-H522 lung
  TGI: > 100 µM
NCI/ADR-RES ovarian
  TGI: > 100 µM
OVCAR-3 ovarian
  TGI: > 100 µM
OVCAR-4 ovarian
  TGI: > 100 µM
OVCAR-5 ovarian
  TGI: > 100 µM
OVCAR-8 ovarian
  TGI: > 100 µM
PC-3 prostate
  TGI: > 100 µM
RPMI-8226 leukemia
  TGI: > 100 µM
RXF 393 renal
  TGI: > 100 µM
SF-268 CNS
  TGI: > 100 µM
SF-295 CNS
  TGI: > 100 µM
SK-MEL-2 melanoma
  TGI: > 100 µM
SK-MEL-28 melanoma
  TGI: > 100 µM
SK-MEL-5 melanoma
  TGI: > 100 µM
SK-OV-3 ovarian
  TGI: > 100 µM
SN12C renal
  TGI: > 100 µM
SNB-19 CNS
  TGI: > 100 µM
SNB-75 CNS
  TGI: > 100 µM
SW-620 colon
  TGI: > 100 µM
T-47D breast
  TGI: > 100 µM
TK-10 renal
  TGI: > 100 µM
U251 CNS
  TGI: > 100 µM
UACC-257 melanoma
  TGI: > 100 µM
UACC-62 melanoma
  TGI: > 100 µM
UO-31 renal
  TGI: > 100 µM

## NNC1=N/C(=C\c2ccccc2O)C(=O)N1
786-0 renal
  TGI: > 100 µM
A498 renal
  TGI: > 100 µM
A549 NSCLC
  TGI: > 100 µM
ACHN renal
  TGI: > 100 µM
BT-549 breast
  TGI: > 100 µM
CAKI-1 renal
  TGI: > 100 µM
CCRF-CEM leukemia
  TGI: 51.9 µM
COLO 205 colon
  TGI: 77.3 µM
DU-145 prostate
  TGI: > 100 µM
EKVX NSCLC
  TGI: > 100 µM
HCT-116 colon
  TGI: > 100 µM
HCT-15 colon
  TGI: > 100 µM
HL-60(TB) leukemia
  TGI: 49.6 µM
HOP-62 NSCLC
  TGI: > 100 µM
HOP-92 NSCLC
  TGI: > 100 µM
HS 578T breast
  TGI: > 100 µM
HT29 colon
  TGI: > 100 µM
IGROV1 ovarian
  TGI: > 100 µM
K-562 leukemia
  TGI: > 100 µM
KM12 colon
  TGI: > 100 µM
LOX IMVI melanoma
  TGI: > 100 µM
M14 melanoma
  TGI: > 100 µM
MALME-3M melanoma
  TGI: > 100 µM
MDA-MB-231 breast
  TGI: > 100 µM
MDA-MB-435
  TGI: > 100 µM
MDA-N
  TGI: > 100 µM
MOLT-4 leukemia
  TGI: > 100 µM
NCI-H226 lung
  TGI: > 100 µM
NCI-H23 lung
  TGI: > 100 µM
NCI-H460 lung
  TGI: > 100 µM
NCI-H522 lung
  TGI: > 100 µM
NCI/ADR-RES ovarian
  TGI: > 100 µM
OVCAR-3 ovarian
  TGI: > 100 µM
OVCAR-5 ovarian
  TGI: > 100 µM
OVCAR-8 ovarian
  TGI: > 100 µM
PC-3 prostate
  TGI: > 100 µM
RPMI-8226 leukemia
  TGI: > 100 µM
RXF 393 renal
  TGI: > 100 µM
SF-268 CNS
  TGI: > 100 µM
SF-295 CNS
  TGI: > 100 µM
SF-539 CNS
  TGI: > 100 µM
SK-MEL-2 melanoma
  TGI: > 100 µM
SK-MEL-28 melanoma
  TGI: > 100 µM
SK-MEL-5 melanoma
  TGI: > 100 µM
SK-OV-3 ovarian
  TGI: > 100 µM
SN12C renal
  TGI: > 100 µM
SNB-19 CNS
  TGI: > 100 µM
SNB-75 CNS
  TGI: > 100 µM
SW-620 colon
  TGI: > 100 µM
T-47D breast
  TGI: 89.4 µM
TK-10 renal
  TGI: > 100 µM
U251 CNS
  TGI: > 100 µM
UACC-257 melanoma
  TGI: > 100 µM
UACC-62 melanoma
  TGI: > 100 µM
UO-31 renal
  TGI: > 100 µM
